In ChEMBL document CHEMBL3232753, “Synthesis and in vitro cytotoxic effect of 6-amino-substituted 11H- and 11Me-indolo[3,2-c]quinolines” (Eur J Med Chem, 2014):
Values belong to the molecule of their own block, whether it stands above or below them.

Experiments:
BALB/3T3 = assay: Cytotoxicity against mouse BALB/3T3 cells assessed as cell viability after 72 hrs by SRB assay; format: cell-based; conditions: BALB/3T3, 72 h
MV4-11 = assay: Cytotoxicity against human MV4-11 cells assessed as cell viability after 72 hrs by MTT assay; format: functional, cell-based; conditions: MV4-11, 72 h
HCT-116 [1] = assay: Cytotoxicity against human HCT116 cells assessed as cell viability after 72 hrs by SRB assay; format: functional, cell-based; conditions: HCT-116, 72 h
A549 [2] = assay: Cytotoxicity against human A549 cells assessed as cell viability after 72 hrs by SRB assay; format: functional, cell-based; conditions: A549, 72 h
Salmonidae = assay: Binding affinity to Salmon fish sperm DNA by UV-visible spectroscopy
A549 [3] = assay: Selectivity ratio of IC50 for human A549 cells to IC50 for human HCT116 cells; format: functional
HCT-116 [4] = assay: Selectivity ratio of IC50 for human MV4-11 cells to IC50 for human HCT116 cells; format: functional

Compound: Cn1c2ccccc2c2c(NCCCN)nc3ccc(F)cc3c21
IC50 (BALB/3T3): 980 nM | IC50 (MV4-11): 170 nM | IC50 (HCT-116 [1]): 110 nM | IC50 (A549 [2]): 250 nM

Compound: NCCCNc1nc2ccc(Cl)cc2c2[nH]c3ccccc3c12
IC50 (MV4-11): 560 nM

Compound: NCCCCNc1nc2ccccc2c2[nH]c3ccccc3c12
IC50 (BALB/3T3): 1140 nM | IC50 (MV4-11): 700 nM | IC50 (HCT-116 [1]): 1060 nM | IC50 (A549 [2]): 1160 nM

Compound: CN1CCCN(c2nc3ccccc3c3[nH]c4ccccc4c23)CC1
IC50 (BALB/3T3): 8960 nM | IC50 (MV4-11): 740 nM | IC50 (HCT-116 [1]): 1650 nM | IC50 (A549 [2]): 1970 nM

Compound: CC(C)(CN)CNc1nc2ccc(Cl)cc2c2[nH]c3ccccc3c12
IC50 (MV4-11): 590 nM

Compound: NCCCN1CCN(CCCNc2nc3ccccc3c3[nH]c4ccccc4c23)CC1
IC50 (BALB/3T3): 1150 nM | IC50 (MV4-11): 390 nM | IC50 (HCT-116 [1]): 980 nM | IC50 (A549 [2]): 760 nM

Compound: Cn1c2ccccc2c2c(NCCCN)nc3ccc(Br)cc3c21
IC50 (MV4-11): 430 nM

Compound: c1ccc(CNc2nc3ccccc3c3[nH]c4ccccc4c23)cc1
IC50 (BALB/3T3): 8040 nM | IC50 (MV4-11): 770 nM | IC50 (HCT-116 [1]): 1460 nM | IC50 (A549 [2]): 1990 nM

Compound: NCCCNc1nc2ccccc2c2[nH]c3ccccc3c12
IC50 (BALB/3T3): 1050 nM | IC50 (MV4-11): 120 nM | IC50 (HCT-116 [1]): 260 nM | IC50 (A549 [2]): 170 nM

Compound: NCCCNc1nc2ccc(F)cc2c2[nH]c3ccccc3c12
IC50 (MV4-11): 590 nM

Compound: Cn1c2ccccc2c2c(NCCCNC(=O)Nc3ccccc3)nc3ccccc3c21
IC50 (BALB/3T3): 6110 nM | IC50 (MV4-11): 570 nM | IC50 (HCT-116 [1]): 820 nM | IC50 (A549 [2]): 1190 nM

Compound: NCCCCCCNc1nc2ccccc2c2[nH]c3ccccc3c12
IC50 (BALB/3T3): 1070 nM | IC50 (MV4-11): 710 nM | IC50 (HCT-116 [1]): 1080 nM | IC50 (A549 [2]): 1060 nM

Compound: c1ccc2c(c1)nc(N1CCCNCC1)c1c3ccccc3[nH]c21
IC50 (BALB/3T3): 10100 nM | IC50 (MV4-11): 850 nM | IC50 (HCT-116 [1]): 1730 nM | IC50 (A549 [2]): 2460 nM

Compound: Cc1ccc2nc(NCCCN)c3c4ccccc4n(C)c3c2c1
IC50 (BALB/3T3): 420 nM | IC50 (MV4-11): 90 nM | IC50 (HCT-116 [1]): 70 nM | IC50 (A549 [2]): 140 nM

Compound: Cn1c2ccccc2c2c(NCCCN)nc3ccc(Cl)cc3c21
IC50 (BALB/3T3): 940 nM | IC50 (MV4-11): 120 nM | IC50 (HCT-116 [1]): 110 nM | IC50 (A549 [2]): 730 nM

K (Salmonidae): 4.84 ×10⁶ L/mol
Compound: CN(C)CCCNc1nc2ccc(Cl)cc2c2c1c1ccccc1n2C
IC50 (BALB/3T3): 820 nM | IC50 (MV4-11): 80 nM | IC50 (HCT-116 [1]): 100 nM | IC50 (A549 [2]): 570 nM

Compound: CN(C)CCCNc1nc2ccc(Br)cc2c2c1c1ccccc1n2C
IC50 (MV4-11): 390 nM

Compound: CN(C)CCCNc1nc2ccccc2c2c1c1ccccc1n2C
IC50 (BALB/3T3): 780 nM | IC50 (MV4-11): 140 nM | IC50 (HCT-116 [1]): 200 nM | IC50 (A549 [2]): 140 nM

Compound: CC(CN)CNc1nc2ccc(Cl)cc2c2[nH]c3ccccc3c12 (configuration not stated)
IC50 (MV4-11): 620 nM

Compound: COc1ccc2nc(NCCCN)c3c4ccccc4n(C)c3c2c1
IC50 (BALB/3T3): 100 nM | IC50 (MV4-11): 100 nM | IC50 (HCT-116 [1]): 10 nM | IC50 (A549 [2]): 110 nM

Compound: OCCNc1nc2ccccc2c2[nH]c3ccccc3c12
IC50 (BALB/3T3): 830 nM | IC50 (MV4-11): 440 nM | IC50 (HCT-116 [1]): 190 nM | Ratio IC50 (A549 [3]): 7 | IC50 (A549 [2]): 1450 nM

Compound: Clc1nc2ccccc2c2[nH]c3ccccc3c12
IC50 (MV4-11): 9140 nM

Compound: NCCCNc1nc2cccc(Br)c2c2[nH]c3ccccc3c12
IC50 (MV4-11): 600 nM

Compound: Cn1c2ccccc2c2c(NCC(C)(C)CN)nc3ccc(Br)cc3c21
IC50 (MV4-11): 500 nM

Compound: Cn1c2ccccc2c2c(NCCCN)nc3ccc([N+](=O)[O-])cc3c21
IC50 (BALB/3T3): 80 nM | IC50 (MV4-11): 50 nM | IC50 (HCT-116 [1]): 10 nM | IC50 (A549 [2]): 110 nM

Compound: Cn1c2ccccc2c2c(NCC(C)(C)CN)nc3ccc(Cl)cc3c21
IC50 (MV4-11): 560 nM

Compound: Cn1c2ccccc2c2c(NCC(C)(C)CN)nc3ccccc3c21
IC50 (BALB/3T3): 700 nM | IC50 (MV4-11): 150 nM | IC50 (HCT-116 [1]): 130 nM | IC50 (A549 [2]): 540 nM

Compound: CCN(CC)CCCC(C)Nc1nc2ccccc2c2c1c1ccccc1n2C (configuration not stated)
IC50 (BALB/3T3): 500 nM | IC50 (MV4-11): 70 nM | IC50 (HCT-116 [1]): 50 nM | IC50 (A549 [2]): 110 nM

Compound: c1ccc2c(c1)nc(N1CCOCC1)c1c3ccccc3[nH]c21
IC50 (MV4-11): 9430 nM

Compound: c1ccc(Nc2nc3ccccc3c3[nH]c4ccccc4c23)cc1
IC50 (MV4-11): 8370 nM

Compound: CCN(CC)CCCC(C)Nc1nc2ccc(Cl)cc2c2c1c1ccccc1n2C (configuration not stated)
IC50 (MV4-11): 570 nM

Compound: OCCCNc1nc2ccccc2c2[nH]c3ccccc3c12
IC50 (BALB/3T3): 860 nM | IC50 (MV4-11): 380 nM | IC50 (HCT-116 [1]): 260 nM | Ratio IC50 (A549 [3]): 7 | IC50 (A549 [2]): 2210 nM

Compound: COc1ccc(Nc2nc3ccccc3c3[nH]c4ccccc4c23)c(OC)c1
IC50 (MV4-11): 7280 nM

Compound: COc1ccc2nc(NCCCN)c3c4ccccc4[nH]c3c2c1
Ratio IC50 (HCT-116 [4]): 8 | IC50 (BALB/3T3): 310 nM | IC50 (MV4-11): 120 nM | IC50 (HCT-116 [1]): 70 nM | IC50 (A549 [2]): 160 nM

K (Salmonidae): 1.05 ×10⁶ L/mol
Compound: CN(C)CCCNc1nc2ccccc2c2[nH]c3ccccc3c12
IC50 (BALB/3T3): 1180 nM | IC50 (MV4-11): 410 nM | IC50 (HCT-116 [1]): 550 nM | IC50 (A549 [2]): 870 nM

Compound: NCCCNc1nc2ccc([N+](=O)[O-])cc2c2[nH]c3ccccc3c12
IC50 (BALB/3T3): 360 nM | IC50 (MV4-11): 150 nM | IC50 (HCT-116 [1]): 100 nM | IC50 (A549 [2]): 350 nM

Compound: Cn1c2ccccc2c2c(Cl)nc3ccccc3c21
IC50 (MV4-11): 16600 nM

Compound: NCCCCCNc1nc2ccccc2c2[nH]c3ccccc3c12
IC50 (BALB/3T3): 1010 nM | IC50 (MV4-11): 610 nM | IC50 (HCT-116 [1]): 1060 nM | IC50 (A549 [2]): 1050 nM

Compound: CN1CCCN(c2nc3ccccc3c3c2c2ccccc2n3C)CC1
IC50 (MV4-11): 960 nM

Compound: Cc1ccc2nc(NCCCN)c3c4ccccc4[nH]c3c2c1
Ratio IC50 (HCT-116 [4]): 8 | IC50 (BALB/3T3): 920 nM | IC50 (MV4-11): 140 nM | IC50 (HCT-116 [1]): 80 nM | IC50 (A549 [2]): 210 nM

Compound: NCCCNc1nc2ccc(Br)cc2c2[nH]c3ccccc3c12
IC50 (MV4-11): 650 nM

Compound: c1ccc2c(c1)nc(NCC1CCCO1)c1c3ccccc3[nH]c21 (configuration not stated)
IC50 (BALB/3T3): 3040 nM | IC50 (MV4-11): 750 nM | IC50 (HCT-116 [1]): 1280 nM | IC50 (A549 [2]): 1400 nM

Compound: Cn1c2ccccc2c2c(NCCCN)nc3ccccc3c21
IC50 (BALB/3T3): 950 nM | IC50 (MV4-11): 110 nM | IC50 (HCT-116 [1]): 60 nM | IC50 (A549 [2]): 180 nM
